Measured values taken from patent US20190233884A1 (University of Southern California, priority 2016, published 2019).
“And” between values parts separate entries of the source, which are not always exact repeats. Identical values can stand only once.

System: patients with refractory metastatic colorectal cancer (mCRC)
Assay: PFS, OS and disease control in the control cohort of refractory mCRC patients receiving regorafenib (n=52, Italy), by baseline characteristics and SNP genotype
Assay type: in vivo, human
Procedure: All patients underwent the treatment in salvage-line setting.
Patients in the control group received 160 mg regorafenib (Bayer, Leverkusen, Germany) once daily from day 1 to 21 every 4 weeks. Doses were adjusted based on haematological and non-haematological adverse events at the treating physician's discretion in accordance with the manufacturer's recommendations. The analyses were approved by the University of Southern California (USC) Institutional Review Board of Medical Sciences and conducted at the USC/Norris Comprehensive Cancer Center in accordance with the Declaration of Helsinki and Good Clinical Practice Guidelines.
Genomic DNA was extracted from peripheral whole blood in patients of all cohorts using the QIAmp Kit (Qiagen, Valencia, Calif., USA) according to the manufacturer's protocol (www.qiagen.com). The candidate SNPs were genotyped using PCR-based direct DNA sequence analysis by ABI 3100A Capillary Genetic Analyzer and Sequencing Scanner v1.0 (Applied Biosystems). Amplification of extracted DNA was carried out using both forward and reverse primers for each gene polymorphism as shown in Table 1. […] The investigators analyzing SNPs were blinded to the clinical data of the study patients.
The primary endpoint in this study was progression-free survival (PFS), and the secondary endpoints were overall survival (OS) and disease control rate (DCR). PFS was calculated from the date of starting treatment to the first observation of disease progression or death from any cause. If a patient had no disease progression or death, PFS was censored at the date of last follow up. OS was calculated from the date of starting treatment until the date of death from any cause or the date of the last follow-up, at which point OS was censored. The disease control rate (DCR) was defined as the proportion of patients who achieved a stable disease (SD) or […] according to RECISTv1.1. Chi-square test was used to examine the difference in baseline patient characteristics among the three cohorts. Allelic distribution of all SNPs by ethnicity for deviation from Hardy-Weinberg equilibrium and the allelic frequencies of SNPs were tested using the Chi-square tests with one degree of freedom. The associations between candidate SNPs and disease control, and toxicities were examined using contingency tables and Fisher's exact test. The associations of SNPs with PFS and OS were analysed using Kaplan-Meier curves and the log-rank test. Because the true mode of inheritance of candidate SNPs was not established yet, a codominant or dominant genetic model if appropriate was considered.
All patients underwent the treatment in salvage-line setting. […] In all patients, adverse events were graded according to the Common Terminology Criteria for Adverse Events, version 4.0.
Patients in the control group received 160 mg regorafenib (Bayer, Leverkusen, Germany) once daily from day 1 to 21 every 4 weeks. Doses were adjusted based on haematological and non-haematological adverse events at treating physician's discretion in accordance with the manufacturer's recommendations. The analyses were approved by the University of Southern California (USC) Institutional Review Board of Medical Sciences and conducted at the USC/Norris Comprehensive Cancer Center in accordance with the Declaration of Helsinki and Good Clinical Practice Guidelines.
Genomic DNA was extracted from peripheral whole blood in patients of all cohorts using the QIAmp Kit (Qiagen, Valencia, Calif., USA) according to the manufacturer's protocol (www.qiagen.com). The candidate SNPs were tested using PCR-based direct DNA sequence analysis by ABI 3100A Capillary Genetic Analyzer and Sequencing Scanner v1.0 (Applied Biosystems). […] The investigators analyzing SNPs were blinded to the clinical data.
The primary endpoint in this study was progression-free survival (PFS), and the secondary endpoints were overall survival (OS) and disease control rate (DCR). […]

[1] = control cohort, OCT2 rs316019 C/A and A/A combined
[2] = control cohort, OCT2 rs316019 C/A and A/A combined vs C/C
[3] = control cohort, OCT2 rs316019 C/C
[4] = control cohort, adjusted for ECOG performance status and number of metastases
[5] = control cohort, hENT1 rs760370 A/A
[6] = control cohort, hENT1 rs760370 A/G
[7] = control cohort, hENT1 rs760370 A/G vs A/A
[8] = control cohort, hENT1 rs760370 Any G
[9] = control cohort, hENT1 rs760370 Any G vs A/A
[10] = control cohort, hENT1 rs760370 G/G
[11] = control cohort, hENT1 rs760370 G/G vs A/A
[12] = control cohort, hENT rs9394992 C/C
[13] = control cohort, hENT rs9394992 C/T
[14] = control cohort, hENT rs9394992 C/T and T/T combined
[15] = control cohort, hENT rs9394992 C/T and T/T combined vs C/C
[16] = control cohort, hENT rs9394992 T/T

Structure (SMILES): CNC(=O)c1cc(Oc2ccc(NC(=O)Nc3ccc(Cl)c(C(F)(F)F)c3)c(F)c2)ccn1 [regorafenib]
- Disease Control Rate SD (control cohort, OCT2 rs316019 C/A): 1 (14%)
- Overall Survival Median, months (95% CI) [1]: 5.3 (3.6, 9.6) months
- Progression-free Survival Median, months (95% CI) [1]: 1.8 (1.5, 2.0) months
- Overall Survival HR (95% CI) multivariate [2]: 0.90 (0.39, 2.09)
- Overall Survival HR (95% CI) univariate [2]: 0.79 (0.35, 1.75)
- Progression-free Survival HR (95% CI) multivariate [2]: 1.50 (0.62, 3.61)
- Progression-free Survival HR (95% CI) univariate [2]: 1.00 (0.44, 2.25)
- Disease Control Rate PD [3]: 25 (61%)
- Disease Control Rate SD [3]: 16 (39%)
- Overall Survival Median, months (95% CI) [3]: 3.3 (2.6, 7.9) months
- Progression-free Survival Median, months (95% CI) [3]: 2.1 (1.7, 3.2) months
- Overall Survival HR (95% CI) multivariate [4]: 0.80 (0.40, 1.61)
- Progression-free Survival HR (95% CI) multivariate [4]: 0.88 (0.45, 1.70)
- Disease Control Rate PD [5]: 15 (65%) and 13 (65%)
- Disease Control Rate SD [5]: 7 (35%)
- Overall Survival Median, months (95% CI) [5]: 5.9 (4.5, 8.0) months and 5.9 (4.5, 5.0) months
- Progression-free Survival Median, months (95% CI) [5]: 2.1 (1.8, 3.1) months
- Disease Control Rate PD [6]: 11 (61%)
- Disease Control Rate SD [6]: 7 (39%)
- Overall Survival Median, months (95% CI) [6]: 5.7 (2.0, 8.9) months
- Progression-free Survival Median, months (95% CI) [6]: 1.9 (1.6, 3.9) months
- Overall Survival HR (95% CI) multivariate [7]: 0.95 (0.50, 1.90)
- Overall Survival HR (95% CI) univariate [7]: 1.25 (0.67, 2.35)
- Progression-free Survival HR (95% CI) multivariate [7]: 1.08 (0.57, 2.08)
- Progression-free Survival HR (95% CI) univariate [7]: 1.26 (0.67, 2.37)
- Disease Control Rate PD [8]: 19 (66%)
- Disease Control Rate SD [8]: 10 (34%)
- Overall Survival Median, months (95% CI) [8]: 4.1 (2.2, 7.8 ) months
- Progression-free Survival Median, months (95% CI) [8]: 1.8 (1.5, 2.2) months
- Overall Survival HR (95% CI) multivariate [9]: 1.01 (0.55, 1.88)
- Overall Survival HR (95% CI) univariate [9]: 1.22 (0.70, 2.13)
- Progression-free Survival HR (95% CI) multivariate [9]: 1.15 (0.61, 2.15)
- Progression-free Survival HR (95% CI) univariate [9]: 1.25 (0.71, 2.20)
- Disease Control Rate SD [10]: 3 (27%)
- Overall Survival Median, months (95% CI) [10]: 2.4 (1.2, 9.1) months
- PD, patients n (%) [10]: 8 (73%)
- Progression-free Survival Median, months (95% CI) [10]: 1.4 (0.4, 4.3) months
- Overall Survival HR (95% CI) multivariate [11]: 1.11 (0.48, 2.56)
- Overall Survival HR (95% CI) univariate [11]: 1.17 (0.55, 2.46)
- Progression-free Survival HR (95% CI) multivariate [11]: 1.57 (0.57, 4.35)
- Progression-free Survival HR (95% CI) univariate [11]: 1.24 (0.59, 2.59)
- Disease Control Rate PD [12]: 14 (70%)
- Disease Control Rate SD [12]: 6 (30%)
- Overall Survival Median, months (95% CI) [12]: 4.4 (2.6, 6.0) months
- Progression-free Survival Median, months (95% CI) [12]: 2.0 (1.2, 2.7) months
- Disease Control Rate PD [13]: 16 (70%)
- Disease Control Rate SD [13]: 7 (30%)
- Overall Survival Median, months (95% CI) [14]: 7.7 (3.7, 8.9) months
- Progression-free Survival Median, months (95% CI) [14]: 1.9 (1.7, 3.9) months
- Overall Survival HR (95% CI) multivariate [15]: 0.64 (0.32, 1.30)
- Overall Survival HR (95% CI) univariate [15]: 0.57 (0.31, 1.05)
- Progression-free Survival HR (95% CI) multivariate [15]: 0.85 (0.46, 1.59)
- Progression-free Survival HR (95% CI) univariate [15]: 0.75 (0.42, 1.32)
- Disease Control Rate PD [16]: 2 (33%)
- Disease Control Rate SD [16]: 4 (67%)
- Progression-free Survival Median, months (95% CI) (control cohort, per OCT2 rs316000 genotype (row), OCT2 rs316000 Any A genotype): 1.8 (1.6, 2.8) months
- Progression-free Survival Median, months (95% CI) (control cohort, per OCT2 rs316000 genotype (row), OCT2 rs316000 G/G genotype): 2.1 (1.7, 3.1) months
- Median OS (whole control cohort): 5.3 months
- Median PFS (whole control cohort): 1.9 months
